This is an account of results in PubChem BioAssay (NCI).

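In this assay, cells in 96-well plates receive the compound at five concentrations for 48 hours. Endpoints are linearly interpolated between the surrounding concentrations. GI50 = concentration required for 50% inhibition of growth. The concentration for full growth arrest is given as TGI.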

Assay in all cases: inhibition of tumour cell growth, NCI panel, 48 h
Test [1] relates to UO-31 renal.
The test system of test [2] is EKVX NSCLC.
The subject of test [3] is SNB-75 CNS.
Test [4] has as its system SW-620 colon.
Test [5] has as its system COLO 205 colon.
In test [6] the test system is U251 CNS.
Test [7] has as its system SK-MEL-5 melanoma.
For test [8], the system named is TK-10 renal.
Test [9] concerns SN12C renal.
Test [10] concerns SF-539 CNS.

As to `Nc1cc(O)ccc1N=Nc1ccc(-c2nc3ccccc3[nH]2)cc1`, the GI50 in test [1] was 30.5 µM; in [2] it was 21 µM; in test [3], greater than 100000 nM; in [4] it was 52.9 µM; in test [5] it was 34.9 µM; in [6], 30.3 µM. In addition, the GI50 in test [7] was 38.8 µM; in test [8], 16.1 µM; in test [9], 53.5 µM. The TGI in test [1] is greater than 100 µM; in [2] it was 92.1 µM; in test [3], greater than 100 µM; in test [4], greater than 100 µM; in [5] it was greater than 100 µM; in [6], greater than 100 µM. Further, the TGI in [7], in [8] and in [9] was greater than 100 µM each time.

In the case of `COC(=O)/C(=N/Nc1cccc(Cl)c1)C(C(=O)C(=O)Nc1cccc(Cl)c1C)c1nc2ccccc2nc1C` (stereo not drawn), the TGI was 75.1 µM in test [1]; greater than 100 µM in test [10]; greater than 100 µM in test [2]; greater than 100 µM in test [4]; greater than 100 µM in test [5]; greater than 100 µM in test [7]. Moreover, the TGI in test [8] and in [9] was greater than 100 µM in each case.

Regarding `N#CC1CCCCOCCOCCOCCOCCOCCCCCC1=O` (stereo not drawn), the TGI in test [1], in test [2], in [3], in test [4], in test [5] and in test [6] was greater than 100 µM throughout. Further, the TGI in test [7], in [8] and in [9] was greater than 100 µM in each case.

For the molecule `Cc1cc(-c2ccccc2)nc(Nc2nc3ccccc3o2)n1`, the TGI in test [1], in test [10], in test [2], in test [4], in test [5] and in test [6] was greater than 100 µM throughout. In addition, the TGI in test [7], in [8] and in [9] was greater than 100 µM in each case.

With `C#CC[N+](C)(CC#C)CC#C`, the TGI in test [1], in test [2], in test [3], in [4], in test [5] and in test [7] was greater than 100 µM in each case. Also, the TGI in test [8] and in test [9] was greater than 100 µM throughout.

For the molecule `O=C(CCC(=O)Nc1ccc(Cl)c(Cl)c1)CC(=O)c1ccc(F)cc1`, the TGI in [1], in test [10], in test [2], in test [4], in test [5] and in test [6] was greater than 100 µM throughout. The TGI in test [7] and in test [9] was greater than 100 µM in each case.

For `Cc1cc(Nc2nc(-c3cccnc3)nc3ccccc23)n[nH]1`, the GI50 was 0.443 µM in [1]; 1.82 µM in test [10]; 300 nM in [3]; 1.09 µM in [4]; 1.07 µM in test [5]; 1.25 µM in [6]. The GI50 was 4 µM in test [7], 0.607 µM in [8] and 3.21 µM in test [9]. Also, the TGI was greater than 100 µM in test [1]; 7.99 µM in test [10]; 2.18 µM in [3]; greater than 100 µM in test [4]; 3.74 µM in test [5]; greater than 53.1 µM in test [6]. The TGI is greater than 63.6 µM in test [7], 99.1 µM in test [8] and greater than 100 µM in test [9].

For the molecule `CCOc1cc(Br)c(C(C)NC(=O)c2cccc(OC)c2)cc1OCC` (stereo not drawn), the GI50 in [1] was 12.1 µM; in test [10], 7.2 µM; in [3], 6040 nM; in [4], 4.6 µM; in [5] it was 8.28 µM; in [6], 11.4 µM. Besides, the results for the GI50 in test [7], in test [8] and in [9] were 8.06 µM, 28.2 µM and 25.2 µM, respectively. Besides, the TGI is greater than 100 µM in [1]; 42.8 µM in [10]; 51.7 µM in test [3]; greater than 100 µM in test [4]; 37.9 µM in [5]; greater than 100 µM in test [6]. Further, the values for the TGI in test [7], in [8] and in test [9] were 34.9 µM, greater than 100 µM and greater than 100 µM, respectively.

With `CCN1C(=O)CCCc2c1ccc(Nc1ncc(Cl)c(NC3[C@@H](C(N)=O)[C@@H]4C=C[C@H]3C4)n1)c2OC` (stereo partly drawn), the GI50 in [1] was 0.809 µM; in [10], 1.23 µM; in test [3] it was 619 nM; in test [4] it was 0.564 µM; in test [5] it was 0.633 µM; in test [6] it was 1.12 µM. For the same molecule, the GI50 in [7] was 1.45 µM; in [8] it was 0.897 µM; in [9], 2.53 µM. Besides, the TGI in test [1] was 4.07 µM; in [10] it was 8.94 µM; in test [3], 6.23 µM; in test [4] it was 3.48 µM; in test [5], 2.48 µM; in test [6], 13.9 µM. Besides, the TGI worked out at 4.82 µM in [7], 4.38 µM in test [8] and 57.8 µM in [9].

Regarding `COc1cc(OC)c2nccc(NCCCN(C)C)c2c1[N+](=O)[O-]`, the TGI in [1], in test [10], in [3], in test [4], in [5] and in [6] was greater than 100 µM in each case. The TGI in test [7], in [8] and in [9] was greater than 100 µM each time.

As for `CCN(Cc1ccc(F)cc1)c1ccc(CO)c(C)c1`, the GI50 in test [1] is 9.34 µM; in [10], 15 µM; in test [3], 4100 nM; in test [4], 14.5 µM; in [5] it was 5.7 µM; in [6] it was 12.1 µM. Also, the GI50 in [7] is 10.2 µM; in test [8], 0.884 µM; in [9], 19.3 µM. The TGI in [1] is 25.1 µM; in test [10], 29.8 µM; in test [3], 20.2 µM; in [4], 54.1 µM; in [5], 19 µM; in test [6], 40.1 µM. Also, the TGI in test [7] is 22.8 µM; in test [8], 4.2 µM; in [9] it was greater than 82.6 µM.

With `COc1cccc(/C=N/NC(=S)NC2CC3CCC2C3)c1O` (stereo not drawn), the GI50 in test [1] is 2.3 µM; in test [10] it was 10.8 µM; in test [3] it was 1580 nM; in test [4] it was 13.7 µM; in test [5] it was 96.7 µM; in test [6], 7.57 µM. Further, the figures for the GI50 in [7], in test [8] and in test [9] were 13.9 µM, 16.4 µM and 5.09 µM, respectively. For the same molecule, the TGI in [1] was 9.93 µM; in test [10] it was 29.3 µM; in [3], 5.47 µM; in [4] it was greater than 100 µM; in test [5], greater than 100 µM; in [6], 26.7 µM. Also, the figures for the TGI in test [7], in [8] and in test [9] were 77.4 µM, 31.5 µM and 22.9 µM, respectively.

Turning to `COC(=O)C(=CNC(N)=O)C(=O)OC`, the TGI in test [1], in test [10], in test [2], in test [4], in test [5] and in test [7] was greater than 100 µM in each case. The TGI in test [8] and in test [9] was greater than 100 µM in each case.

`CC(=O)N1N=C(c2ccc(Nc3ccnc4cc(Cl)ccc34)cc2)CC1c1ccc(Cl)cc1` (stereo not drawn): the GI50 was 3.87 µM in [1]; greater than 100 µM in [10]; greater than 100 µM in test [4]; 5.93 µM in [5]; greater than 100 µM in test [6]; 2.2 µM in test [7]. Also, the GI50 in test [8] was greater than 100 µM; in test [9], 30.7 µM. Also, the TGI in test [1] was greater than 100 µM; in test [10], greater than 100 µM; in test [4] it was greater than 100 µM; in test [5], greater than 100 µM; in test [6], greater than 100 µM; in [7], 16 µM. Moreover, the TGI in test [8] and in test [9] was greater than 100 µM throughout.

Take `Clc1ccc(-c2csc(Nc3cccc(-c4csc(-c5ccccc5)n4)c3)n2)cc1`: the GI50 was 12.4 µM in [1]; 8.36 µM in [2]; 12.2 µM in [4]; 10 µM in test [5]; 7.39 µM in test [6]; 8.95 µM in [7]. Further, the values for the GI50 in test [8] and in test [9] were 19.8 µM and 7.6 µM, respectively. Also, the TGI was found to be 27.4 µM in test [1]; 17.7 µM in test [2]; 28.8 µM in test [4]; 23.1 µM in test [5]; 14.1 µM in test [6]; 18.9 µM in [7]. For the same molecule, the figures for the TGI in [8] and in test [9] were greater than 50 µM and 16.8 µM, respectively.

With `Oc1ccc(O)c(-c2cc(-c3ccc(Cl)cc3)nn2-c2ccccc2)c1`, the GI50 in test [1] is 12.2 µM; in test [10] it was 31 µM; in test [2] it was 23.9 µM; in [4], 3.81 µM; in test [7], 10.1 µM; in test [8], 6.58 µM. Also, the GI50 in test [9] was 2.88 µM. The TGI in [1] is greater than 100 µM; in [10], 52.5 µM; in [2], 51.1 µM; in [4], 18.4 µM; in test [7], 28.8 µM; in test [8], 25.6 µM. In [9], this molecule registered a TGI of 7.19 µM.
